# Data taken from ChEMBL document CHEMBL3046061, “Quinolinedione nucleus as a novel scaffold for A1 and A2A adenosine receptor antagonists” (Med Chem Res, 2008).
# Key:
# [1] = target: T1, Adenosine receptor A1 (Bos taurus) (UniProt P28190); assay: Displacement of [3H]DPCPX from adenosine A1 receptor in Bos taurus (bovine) cortical membrane at 10 uM
# T1 sequence (whole entry): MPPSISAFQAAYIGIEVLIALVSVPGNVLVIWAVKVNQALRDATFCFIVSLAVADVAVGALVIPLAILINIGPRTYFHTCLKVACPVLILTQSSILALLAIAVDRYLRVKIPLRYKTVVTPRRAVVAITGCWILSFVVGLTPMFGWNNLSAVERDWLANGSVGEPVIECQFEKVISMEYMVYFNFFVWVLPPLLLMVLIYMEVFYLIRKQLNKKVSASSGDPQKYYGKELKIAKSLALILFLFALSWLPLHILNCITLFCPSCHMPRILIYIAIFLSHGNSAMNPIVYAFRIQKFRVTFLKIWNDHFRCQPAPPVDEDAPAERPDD
# [2] = system: cAMP phosphodiesterase 3 (Cavia porcellus); assay: Inhibition of Cavia porcellus (guinea pig) PDE3 isolated from heart using [3H]cAMP as substrate at 1 uM by two-step method
# [3] = system: cAMP phosphodiesterase 3 (Cavia porcellus); assay: Inhibition of Cavia porcellus (guinea pig) PDE3 isolated from heart using [3H]cAMP as substrate at 50 uM by two-step method
# [4] = system: cAMP phosphodiesterase 3 (Cavia porcellus); assay: Inhibition of Cavia porcellus (guinea pig) PDE3 isolated from heart using [3H]cAMP as substrate at 100 uM by two-step method
# [5] = system: cAMP phosphodiesterase 3 (Cavia porcellus); assay: Inhibition of Cavia porcellus (guinea pig) PDE3 isolated from heart using [3H]cAMP as substrate at 10 uM by two-step method
# [6] = target: Uncharacterized protein (Bos taurus) (UniProt E1BKU0); assay: Displacement of [3H]CGS21680 from adenosine A2A receptor in Bos taurus (bovine) cortical membrane at 10 uM
# Chain of Uncharacterized protein (Bos taurus) (E1BKU0 as listed by the source): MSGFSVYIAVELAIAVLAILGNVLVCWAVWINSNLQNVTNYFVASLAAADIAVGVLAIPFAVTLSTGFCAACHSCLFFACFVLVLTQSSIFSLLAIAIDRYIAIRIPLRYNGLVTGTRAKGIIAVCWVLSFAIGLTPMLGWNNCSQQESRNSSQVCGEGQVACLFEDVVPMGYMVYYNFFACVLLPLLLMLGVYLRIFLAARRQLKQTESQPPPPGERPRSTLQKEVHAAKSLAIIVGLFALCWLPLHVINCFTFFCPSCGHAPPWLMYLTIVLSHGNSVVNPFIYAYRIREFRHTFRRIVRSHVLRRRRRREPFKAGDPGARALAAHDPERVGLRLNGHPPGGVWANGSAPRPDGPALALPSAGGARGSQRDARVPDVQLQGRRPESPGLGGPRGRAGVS
# [7] = target: T2, Adenosine receptor A3 (Homo sapiens) (UniProt P0DMS8); assay: Displacement of [125I]AB-MECA from Homo sapiens (human) adenosine A3 receptor expressed in CHO cells at 10 uM; type: cell-based
# T2 sequence (whole entry): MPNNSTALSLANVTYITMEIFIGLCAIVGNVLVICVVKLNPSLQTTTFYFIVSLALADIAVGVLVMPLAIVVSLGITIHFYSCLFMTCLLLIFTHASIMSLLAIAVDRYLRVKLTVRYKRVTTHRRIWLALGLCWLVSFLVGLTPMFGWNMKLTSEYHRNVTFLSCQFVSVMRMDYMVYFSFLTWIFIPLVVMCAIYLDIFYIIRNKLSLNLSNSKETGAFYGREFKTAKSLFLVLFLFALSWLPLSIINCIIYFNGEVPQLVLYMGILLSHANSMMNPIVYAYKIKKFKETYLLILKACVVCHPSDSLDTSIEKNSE
# [8] = target: T3, Adenosine receptor A1 (Homo sapiens) (UniProt P30542); assay: Displacement of [3H]DPCPX from Homo sapiens (human) adenosine A1 receptor expressed in CHO cells at 10 uM; type: cell-based
# T3 sequence (whole entry): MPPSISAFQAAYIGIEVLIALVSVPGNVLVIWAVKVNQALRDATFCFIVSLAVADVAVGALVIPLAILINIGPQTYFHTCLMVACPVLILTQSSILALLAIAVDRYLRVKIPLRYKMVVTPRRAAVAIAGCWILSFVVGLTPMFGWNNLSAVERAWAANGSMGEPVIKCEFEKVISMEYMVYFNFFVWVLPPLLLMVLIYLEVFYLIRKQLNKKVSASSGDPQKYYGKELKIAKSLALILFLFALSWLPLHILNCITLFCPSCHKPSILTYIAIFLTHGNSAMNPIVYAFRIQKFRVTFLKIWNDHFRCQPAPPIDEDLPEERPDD
# Adenosine receptor A2a [9] = target: T4, Adenosine receptor A2a (Homo sapiens, UniProt P29274); assay: Displacement of [3H]CGS21680 from Homo sapiens (human) adenosine A2A receptor expressed in CHO cells at 10 uM; type: cell-based
# T4 sequence (P29274 whole entry): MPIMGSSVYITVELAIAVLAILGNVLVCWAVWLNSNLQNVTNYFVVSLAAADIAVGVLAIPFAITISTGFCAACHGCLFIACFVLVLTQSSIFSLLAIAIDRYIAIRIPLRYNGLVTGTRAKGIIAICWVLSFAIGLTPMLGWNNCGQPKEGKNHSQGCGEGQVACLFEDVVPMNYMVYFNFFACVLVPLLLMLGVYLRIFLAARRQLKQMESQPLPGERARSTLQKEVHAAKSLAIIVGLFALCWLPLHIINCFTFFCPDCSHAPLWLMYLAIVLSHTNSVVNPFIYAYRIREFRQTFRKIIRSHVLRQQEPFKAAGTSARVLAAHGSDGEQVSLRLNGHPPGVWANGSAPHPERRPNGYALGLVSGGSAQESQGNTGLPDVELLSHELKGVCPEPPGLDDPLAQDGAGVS
# Adenosine receptor A1 [10] = target: T5, Adenosine receptor A1 (Bos taurus, UniProt P28190); assay: Displacement of [3H]DPCPX from adenosine A1 receptor in Bos taurus (bovine) cortical membrane
# T5 sequence (P28190 whole entry): T1 sequence (whole entry)
# Uncharacterized protein = Uncharacterized protein (Bos taurus, UniProt E1BKU0); assay: Displacement of [3H]CGS21680 from adenosine A2A receptor in Bos taurus (bovine) cortical membrane
# Chain of Uncharacterized protein (E1BKU0 whole entry): as the sequence (E1BKU0 as listed by the source) above
# Adenosine receptor A2a [11] = target: T4, Adenosine receptor A2a; assay: Displacement of [3H]CGS21680 from Homo sapiens (human) adenosine A2A receptor expressed in CHO cells; type: cell-based
# Adenosine receptor A1 [12] = target: T6, Adenosine receptor A1 (Homo sapiens, UniProt P30542); assay: Displacement of [3H]DPCPX from Homo sapiens (human) adenosine A1 receptor expressed in CHO cells; type: cell-based
# T6 sequence (P30542 whole entry): T3 sequence (whole entry)
SMILES,inhibition [1] [%],inhibition [2] [%],inhibition [3] [%],inhibition [4] [%],inhibition [5] [%],inhibition [6] [%],inhibition [7] [%],inhibition [8] [%],inhibition (Adenosine receptor A2a [9]) [%],Ki (Adenosine receptor A1 [10]) [µM],Ki (Uncharacterized protein) [µM],Ki (Adenosine receptor A2a [11]) [µM],Ki (Adenosine receptor A1 [12]) [µM]
CC(=O)c1cc(C(=O)c2ccccc2)c(=O)[nH]c1C,0,0,4.35,8.9,2,0,0,–,–,–,–,–,–
O=C(c1ccccc1)c1cc(C(=O)c2ccccc2)c(=O)[nH]c1-c1ccccc1,13,0,5.4,9.6,1.76,8,2,2,13,–,–,–,–
O=C1CC(c2ccccc2)Cc2[nH]c(=O)c(C(=O)c3ccccc3)cc21 (centres undefined),–,0,1.7,7.8,5.2,0,0,5,16,6.5,–,–,–
CC(C)(C)C(=O)c1cc2c([nH]c1=O)CC(c1ccccc1)CC2=O (centres undefined),–,0,3.3,4.2,0.8,–,21,11,–,5.1,15,16,–
O=C(c1ccccc1)c1cc(S(=O)(=O)c2ccccc2)c(=O)[nH]c1-c1ccccc1,8,0,3.5,7.53,0,8,0,1,11,–,–,–,–
CC(C)(C)C(=O)c1cc2c([nH]c1=O)CCCC2=O,13,0,6.6,6.6,2.5,0,0,0,–,–,–,–,–
O=C1CC(c2ccccc2)Cc2[nH]c(=O)c(S(=O)(=O)c3ccccc3)cc21 (centres undefined),–,0,5.7,10.4,0,–,18,–,–,5.8,7.9,7,7.8

# The remaining lines, values ahead:
inhibition [1] [%],inhibition [2] [%],inhibition [3] [%],inhibition [4] [%],inhibition [5] [%],inhibition [6] [%],inhibition [7] [%],inhibition [8] [%],inhibition (Adenosine receptor A2a [9]) [%],Ki (Adenosine receptor A1 [10]) [µM],Ki (Uncharacterized protein) [µM],Ki (Adenosine receptor A2a [11]) [µM],Ki (Adenosine receptor A1 [12]) [µM],SMILES
6,0,4.3,6,0,4,0,–,–,–,–,–,–,O=C1CCCc2[nH]c(=O)c(C(=O)c3ccccc3)cc21
10,0,4.7,5.7,0,2,0,36,–,–,–,–,–,O=C1CCCc2[nH]c(=O)c(S(=O)(=O)c3ccccc3)cc21
0,0,2.15,8.23,1.15,11,13,–,–,–,–,–,–,CC(=O)c1cc(C(=O)C(C)(C)C)c(=O)[nH]c1C
0,0,3.98,8.72,1.03,0,0,–,–,–,–,–,–,CC(=O)c1cc(S(=O)(=O)c2ccccc2)c(=O)[nH]c1C
